Type in all cases: functional
Test [1] concerns Amaranthus retroflexus. The test can be described thus: Herbicidal activity against Amaranthus retroflexus at 1.5 kg/hectare administered preemergence of first true leaf measured after 10 days. Conditions: pre-emergence, 240 h.
Test [2] concerns Medicago sativa. The test can be described thus: Herbicidal activity against Medicago sativa at 1.5 kg/hectare administered preemergence of first true leaf measured after 10 days. Conditions: pre-emergence, 240 h.
Test [3] has as its system Brassica napus. Description: Herbicidal activity against Brassica napus L. at 1.5 kg/hectare administered preemergence of first true leaf measured after 10 days. Conditions: pre-emergence, 240 h.
The subject of test [4] is Medicago sativa. Description: Herbicidal activity against Medicago sativa at 1.5 kg/hectare administered postemergence of first true leaf measured after 10 days. Conditions: post-emergence, 240 h.
Test [5] has as its system Digitaria sanguinalis. Description: Herbicidal activity against Digitaria sanguinalis at 1.5 kg/hectare administered postemergence of first true leaf measured after 10 days. Conditions: post-emergence, 240 h.
For test [6], the system named is Digitaria sanguinalis. Description: Herbicidal activity against Digitaria sanguinalis (L.) Scop. at 1.5 kg/hectare administered preemergence of first true leaf measured after 10 days. Conditions: pre-emergence, 240 h.
Test [7] relates to Brassica napus. Description: Herbicidal activity against Brassica napus at 1.5 kg/hectare administered postemergence of first true leaf measured after 10 days. Conditions: post-emergence, 240 h.
For test [8], the system named is Amaranthus retroflexus. Description: Herbicidal activity against Amaranthus retroflexus at 1.5 kg/hectare administered postemergence of first true leaf measured after 10 days. Conditions: post-emergence, 240 h.
Another test relates to Cladosporium cucumerinum. The test can be described thus: Fungicidal activity against Cladosporium cucumerinum assessed as inhibition of mycelium growth at 50 mg/L after 72 hrs.
For another test, the system named is Fusarium graminearum. The test can be described thus: Fungicidal activity against Gibberella zeae assessed as inhibition of mycelium growth at 50 mg/L after 72 hrs.
Another test deals with Mycosphaerella arachidis. Description: Fungicidal activity against Cercospora arachidicola assessed as inhibition of mycelium growth at 50 mg/L after 72 hrs.
Another test relates to Cucumis sativus. The test can be described thus: Growth regulatory activity in cucumber assessed as root growth at 10 mg/L incubated in dark for 5 days.
The subject of test [9] is Botryosphaeria berengeriana. Description: Fungicidal activity against Physalospora pyricola assessed as inhibition of mycelium growth at 50 mg/L after 72 hrs.
The subject of the next test is Alternaria solani. Description: Fungicidal activity against Alternaria solani assessed as inhibition of mycelium growth at 50 mg/L after 72 hrs.

Where only a bound is given, the exact number is not on record here.

The inhibition is the relative decrease from the control value, in per cent. `CCOCCOC(=O)/C(C#N)=C(\NCc1ccc(Cl)nc1)SC`: the inhibition at 1500 g/ha stood at 32.4% in the test on Amaranthus retroflexus [1]; 3.6% with Medicago sativa [2]; 47.6% with Brassica napus [3]; 55.3% in the test with Medicago sativa [4]; 54.1% with Digitaria sanguinalis [5]; 18.8% with Digitaria sanguinalis [6]. Besides, the inhibition at 1500 g/ha with Brassica napus [7] and in the test with Amaranthus retroflexus [8] was 100% throughout.
Consider `CCOCCOC(=O)c1c(SC)nn(-c2ccc(Cl)cc2)c1N`, for which the inhibition at 1500 g/ha with Amaranthus retroflexus [1], in the test with Medicago sativa [2], in the test on Brassica napus [3], in the test on Medicago sativa [4], in the test on Digitaria sanguinalis [5] and in the test on Digitaria sanguinalis [6] was 0% each time. For the same compound, the inhibition at 1500 g/ha in the test on Brassica napus [7] and with Amaranthus retroflexus [8] was 0% throughout. The inhibition at 50 µg/mL with Cladosporium cucumerinum came out at 23.6%; in the test on Fusarium graminearum, 37.8%; with Mycosphaerella arachidis it was 26.5%; in test [9], 36%; in the test with Alternaria solani it was 20%. Moreover, in the test with Cucumis sativus, the Activity turned out to be 66.6%.
Take `CCOCCOC(=O)c1c(CC)nn(-c2ccc(Cl)cc2)c1N`: the inhibition at 1500 g/ha with Amaranthus retroflexus [1], with Medicago sativa [2], with Brassica napus [3], with Medicago sativa [4], in the test on Digitaria sanguinalis [5] and in the test on Digitaria sanguinalis [6] was 0% each time. In addition, the inhibition at 1500 g/ha in the test on Brassica napus [7] and in the test on Amaranthus retroflexus [8] was 0% in each case. For the same compound, the inhibition at 50 µg/mL with Cladosporium cucumerinum came out at 14.5%; in the test with Fusarium graminearum, 53.3%; with Mycosphaerella arachidis, 41.2%; in test [9], 38.7%; in the test on Alternaria solani, 0%. For the same compound, the Activity in the test on Cucumis sativus turned out to be 111.3%.
On to `CCOCCOC(=O)c1c(CC)nn(-c2ccccc2)c1N`, for which the inhibition at 1500 g/ha in the test with Amaranthus retroflexus [1], in the test with Medicago sativa [2], with Brassica napus [3], in the test with Medicago sativa [4], in the test on Digitaria sanguinalis [5] and in the test with Digitaria sanguinalis [6] was 0% in each case. The inhibition at 1500 g/ha in the test on Brassica napus [7] was found to be 61.5%; in the test with Amaranthus retroflexus [8], 0%. Also, the inhibition at 50 µg/mL was 18.2% in the test with Cladosporium cucumerinum; 46.7% in the test with Fusarium graminearum; 35.3% in the test with Mycosphaerella arachidis; 1.3% in [9]; 20% in the test on Alternaria solani. In addition, the Activity with Cucumis sativus was 46.3%.
As to `CCOCCOC(=O)c1c(C(C)C)nn(-c2ccccc2)c1N`, the inhibition at 1500 g/ha came to 0% in the test with Amaranthus retroflexus [1]; 0% in the test with Medicago sativa [2]; 15% with Brassica napus [3]; 0% with Medicago sativa [4]; 0% in the test on Digitaria sanguinalis [5]; 0% in the test on Digitaria sanguinalis [6]. Further, the inhibition at 1500 g/ha in the test on Brassica napus [7] worked out at 58.8%; with Amaranthus retroflexus [8] it was 0%. Moreover, the inhibition at 50 µg/mL in the test on Cladosporium cucumerinum amounted to 1.8%; with Fusarium graminearum, 46.7%; in the test on Mycosphaerella arachidis it was 20.6%; in test [9], 32%; in the test with Alternaria solani, 32%. The Activity with Cucumis sativus turned out to be 46.3%.
`CC1COC(Cn2cncn2)(c2ccc(Oc3ccc(Cl)cc3)cc2Cl)O1` (stereo not given) [DIFENOCONAZOLE]: the inhibition at 50 µg/mL (in the test on Cladosporium cucumerinum; with Fusarium graminearum; in the test on Mycosphaerella arachidis; in test [9]; in the test on Alternaria solani) was 100% throughout.
For `O=C(O)Cc1c[nH]c2ccccc12` [INDOLE-3-ACETIC ACID], in the test on Cucumis sativus, the Activity is reported as more than 150%.

Values taken from ChEMBL document CHEMBL1136896, “Synthesis and biological evaluation of arylhydrazinocyanoacrylates and N-aryl pyrazolecarboxylates” (2009).
